Measured values from PubChem BioAssay (NCI).
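Dose response: 5 concentrations. Exposure: 48 h. Format: 96-well plates. Endpoint: linear interpolation; highest concentration if not reached. GI50 = concentration required for 50% inhibition of growth. Definition used: TGI = concentration required for complete inhibition of growth.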

How the values were obtained:
Experiment in all cases: NCI-60 cell line screen, 48 h
NCI/ADR-RES ovarian = tested on: NCI/ADR-RES ovarian
MOLT-4 leukemia = tested on: MOLT-4 leukemia
RPMI-8226 leukemia = tested on: RPMI-8226 leukemia
MDA-MB-435 = tested on: MDA-MB-435
HL-60(TB) leukemia = tested on: HL-60(TB) leukemia
SNB-75 CNS = tested on: SNB-75 CNS
U251 CNS = tested on: U251 CNS
HS 578T breast = tested on: HS 578T breast
NCI-H522 lung = tested on: NCI-H522 lung
UACC-62 melanoma = tested on: UACC-62 melanoma
MDA-N = tested on: MDA-N
T-47D breast = tested on: T-47D breast
SK-OV-3 ovarian = tested on: SK-OV-3 ovarian
OVCAR-4 ovarian = tested on: OVCAR-4 ovarian
PC-3 prostate = tested on: PC-3 prostate
SK-MEL-2 melanoma = tested on: SK-MEL-2 melanoma
DU-145 prostate = tested on: DU-145 prostate
SK-MEL-28 melanoma = tested on: SK-MEL-28 melanoma

Structure (SMILES)	TGI (NCI/ADR-RES ovarian) [µM]	TGI (MOLT-4 leukemia) [µM]	TGI (RPMI-8226 leukemia) [µM]	TGI (MDA-MB-435) [µM]	TGI (HL-60(TB) leukemia) [µM]	TGI (SNB-75 CNS) [µM]	TGI (U251 CNS) [µM]	TGI (HS 578T breast) [µM]	TGI (NCI-H522 lung) [µM]	TGI (UACC-62 melanoma) [µM]	TGI (MDA-N) [µM]	TGI (T-47D breast) [µM]	TGI (SK-OV-3 ovarian) [µM]	TGI (OVCAR-4 ovarian) [µM]	TGI (PC-3 prostate) [µM]	TGI (SK-MEL-2 melanoma) [µM]	TGI (DU-145 prostate) [µM]	TGI (SK-MEL-28 melanoma) [µM]	GI50 (MOLT-4 leukemia) [µM]	GI50 (SK-MEL-2 melanoma) [µM]
CCN(CC)CCNCc1cc(Cl)cc2c1OCOC2	> 10	> 10	> 10	> 10	> 10	> 10	> 10	> 10	> 10	> 10	> 10	> 10	> 10	> 10	> 10	> 10	> 10	> 10		
COc1cccc(N2C(=O)C3c4[nH]c5ccc(C)cc5c4C4CCC(C(C)(C)C)CC4C3C2=O)c1 (stereo unspecified)	9.27	5.04	> 10	> 10	4.21	7.36	> 10	> 10	5.66	> 10	> 10	> 10	> 10	> 10	> 10	> 10	> 10	> 10		
O=C(N/N=C/c1cc(Cl)cc(Cl)c1O)c1ccccc1O		> 100				22.5	18.4		3.18	3.89			15.3			6.87		25.2	0.375	1.39
